Assay type in all cases: cell-based
Assay [1] has as its system IL-2 secretion from T cells in human whole blood. As to conditions: for IC50: read-out: WB (IL-2) IC50 (nM, Avg).
For another assay, the target named is hKv1.3 (Homo sapiens, UniProt P22001). Put plainly: cell-based. The settings on record: Kv1.3 (IWQ) IC50 (nM, Avg).
The subject of assay [2] is IFN-g secretion from T cells in human whole blood. As to conditions: read-out: WB (IFNg) IC50 (nM, Avg).

Experimental findings from patent US20120121591A1 (priority 2009, published 2012) are described below.

SMILES strings stand for the structures. pIC50: −log10 of the molar value. Like-named read-outs stand apart in the source and are kept apart here.

hKv1.3, sequence (P22001 whole entry): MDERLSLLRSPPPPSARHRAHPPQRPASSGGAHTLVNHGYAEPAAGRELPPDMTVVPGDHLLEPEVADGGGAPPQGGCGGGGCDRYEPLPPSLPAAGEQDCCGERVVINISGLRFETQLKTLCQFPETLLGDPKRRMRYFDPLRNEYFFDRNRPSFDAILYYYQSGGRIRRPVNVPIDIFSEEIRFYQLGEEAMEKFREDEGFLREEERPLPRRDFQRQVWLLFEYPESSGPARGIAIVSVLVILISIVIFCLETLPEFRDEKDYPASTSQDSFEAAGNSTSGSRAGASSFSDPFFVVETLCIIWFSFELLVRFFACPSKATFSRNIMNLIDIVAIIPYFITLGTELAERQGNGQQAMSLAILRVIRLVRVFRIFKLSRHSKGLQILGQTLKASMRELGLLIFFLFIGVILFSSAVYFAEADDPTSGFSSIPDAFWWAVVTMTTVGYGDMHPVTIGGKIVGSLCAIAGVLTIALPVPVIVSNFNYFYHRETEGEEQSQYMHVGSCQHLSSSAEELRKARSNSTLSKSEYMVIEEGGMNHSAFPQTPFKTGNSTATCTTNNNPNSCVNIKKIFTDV

Consider `CCCC[C@@H]1NC(=O)[C@H](CO)NC(=O)[C@H](Cc2c[nH]cn2)NC(=O)[C@H](CCCCN)NC(=O)[C@@H]2CSSC[C@@H]3NC(=O)[C@H]([C@@H](C)O)NC(=O)[C@H](CCCCN)NC(=O)[C@H](CCCNC(=N)N)NC(=O)[C@H](CSSC[C@H](NC(=O)[C@H](CCCNC(=N)N)NC(=O)[C@H](CO)NC(=O)[C@H](CCCCN)NC(=O)[C@@H]4CCCN4C(=O)[C@H]([C@@H](C)CC)NC(=O)[C@H]([C@@H](C)O)NC(=O)[C@H](CC(=O)O)NC(=O)[C@H]([C@@H](C)CC)NC(=O)[C@@H](NC(=O)[C@H](CO)NC(=O)[C@@H](N)CCCNC(=N)N)CSSC[C@@H](C(=O)N[C@@H](CC(=O)O)C(N)=O)NC(=O)[C@H]([C@@H](C)O)NC(=O)CNC3=O)C(=O)N[C@@H]([C@@H](C)O)C(=O)N[C@@H](C)C(=O)N[C@@H](Cc3ccccc3)C(=O)N[C@@H](CCCCN)C(=O)N2)NC(=O)[C@H](Cc2ccccc2)NC(=O)[C@H](CO)NC(=O)[C@H](CC(C)C)NC(=O)[C@H](CCCNC(=N)N)NC(=O)[C@H](Cc2ccc(O)cc2)NC(=O)[C@H](CCCCN)NC1=O` [[Lys16, Nle21]ShK-Asp-amide], for which the 50% inhibitory concentration (IC50) (as a rule, the concentration at which inhibition is half-maximal) was 0.295 nM in assay [1], 0.39 nM against hKv1.3 and 0.403 nM in assay [2].

With `CCCC[C@@H]1NC(=O)[C@H](CO)NC(=O)[C@H](Cc2c[nH]cn2)NC(=O)[C@H](CCCCN)NC(=O)[C@@H]2CSSC[C@@H]3NC(=O)[C@H]([C@@H](C)O)NC(=O)[C@H](CCCCN)NC(=O)[C@H](CCCNC(=N)N)NC(=O)[C@H](CSSC[C@H](NC(=O)[C@H](CCCNC(=N)N)NC(=O)[C@H](CO)NC(=O)[C@H](CCCCN)NC(=O)[C@@H]4CCCN4C(=O)[C@H]([C@@H](C)CC)NC(=O)[C@H]([C@@H](C)O)NC(=O)[C@H](CC(=O)O)NC(=O)[C@H]([C@@H](C)CC)NC(=O)[C@@H](NC(=O)[C@H](CO)NC(=O)[C@@H](N)CCCNC(=N)N)CSSC[C@@H](C(N)=O)NC(=O)[C@H]([C@@H](C)O)NC(=O)CNC3=O)C(=O)N[C@@H]([C@@H](C)O)C(=O)N[C@@H](C)C(=O)N[C@@H](Cc3ccccc3)C(=O)N[C@@H](CCCCN)C(=O)N2)NC(=O)[C@H](Cc2ccccc2)NC(=O)[C@H](CO)NC(=O)[C@H](CC(C)C)NC(=O)[C@H](CCCNC(=N)N)NC(=O)[C@H](Cc2ccc(O)cc2)NC(=O)[C@H](CCCCN)NC1=O` [[Lys16, Nle21]ShK-amide], in assay [1] (read-out: WB (IL-2) IC50), the pIC50 (as a rule, the negative decadic logarithm of the IC50, by convention in mol/L) was 9.09. Further, the IC50 in assay [1] came out at 0.823 nM; at hKv1.3, 0.153 nM; in assay [2], 1.1 nM.

Turning to `CCC[C@@H]1NC(=O)[C@H](CO)NC(=O)[C@H](Cc2c[nH]cn2)NC(=O)[C@H](CCCCN)NC(=O)[C@@H]2CSSC[C@@H]3NC(=O)[C@H]([C@@H](C)O)NC(=O)[C@H](CCCCN)NC(=O)[C@H](CCCNC(=N)N)NC(=O)[C@H](CSSC[C@H](NC(=O)[C@H](CCCNC(=N)N)NC(=O)[C@H](CO)NC(=O)[C@H](CCCCN)NC(=O)[C@@H]4CCCN4C(=O)[C@H]([C@@H](C)CC)NC(=O)[C@H]([C@@H](C)O)NC(=O)[C@H](CC(=O)O)NC(=O)[C@H]([C@@H](C)CC)NC(=O)[C@@H](NC(=O)[C@H](CO)NC(=O)[C@@H](N)CCCNC(=N)N)CSSC[C@@H](C(=O)N[C@@H](CCC(=O)O)C(N)=O)NC(=O)[C@H]([C@@H](C)O)NC(=O)CNC3=O)C(=O)N[C@@H]([C@@H](C)O)C(=O)N[C@@H](C)C(=O)N[C@@H](Cc3ccccc3)C(=O)N[C@@H](CCCCN)C(=O)N2)NC(=O)[C@H](Cc2ccccc2)NC(=O)[C@H](CO)NC(=O)[C@H](CC(C)C)NC(=O)[C@H](CCCNC(=N)N)NC(=O)[C@H](Cc2ccc(O)cc2)NC(=O)[C@H](CCCCN)NC1=O` [[Lys16, Nva21]ShK-Glu-amide], the results for the IC50 (in assay [1]; against hKv1.3; in assay [2]) were 0.218 nM, 0.21 nM and 0.353 nM, respectively.

Regarding `CCC[C@@H]1NC(=O)[C@H](CO)NC(=O)[C@H](Cc2c[nH]cn2)NC(=O)[C@H](CCCCN)NC(=O)[C@@H]2CSSC[C@@H]3NC(=O)[C@H]([C@@H](C)O)NC(=O)[C@H](CCCCN)NC(=O)[C@H](CCCNC(=N)N)NC(=O)[C@H](CSSC[C@H](NC(=O)[C@H](CCCNC(=N)N)NC(=O)[C@H](CO)NC(=O)[C@H](CCCCN)NC(=O)[C@@H]4CCCN4C(=O)[C@H]([C@@H](C)CC)NC(=O)[C@H]([C@@H](C)O)NC(=O)[C@H](CC(=O)O)NC(=O)[C@H]([C@@H](C)CC)NC(=O)[C@@H](NC(=O)[C@H](CO)NC(=O)[C@@H](N)CCCNC(=N)N)CSSC[C@@H](C(N)=O)NC(=O)[C@H]([C@@H](C)O)NC(=O)CNC3=O)C(=O)N[C@@H]([C@@H](C)O)C(=O)N[C@@H](C)C(=O)N[C@@H](Cc3ccccc3)C(=O)N[C@@H](CCCCN)C(=O)N2)NC(=O)[C@H](Cc2ccccc2)NC(=O)[C@H](CO)NC(=O)[C@H](CC(C)C)NC(=O)[C@H](CCCNC(=N)N)NC(=O)[C@H](Cc2ccc(O)cc2)NC(=O)[C@H](CCCCN)NC1=O` [[Lys16, Nva21]ShK-amide], the IC50 came out at 0.486 nM in assay [1], 0.47 nM at hKv1.3 and 0.932 nM in assay [2].

Consider `CC[C@H](C)[C@@H]1NC(=O)[C@@H](NC(=O)[C@H](CO)NC(=O)[C@@H](N)CCCNC(=N)N)CSSC[C@@H](C(N)=O)NC(=O)[C@H]([C@@H](C)O)NC(=O)CNC(=O)[C@@H]2CSSC[C@@H]3NC(=O)[C@H](CCCCN)NC(=O)[C@H](Cc4ccccc4)NC(=O)[C@H](C)NC(=O)[C@H]([C@@H](C)O)NC(=O)[C@H](CSSC[C@H](NC(=O)[C@H](Cc4ccccc4)NC(=O)[C@H](CO)NC(=O)[C@H](CC(C)C)NC(=O)[C@H](CCCNC(=N)N)NC(=O)[C@H](Cc4ccc(O)cc4)NC(=O)[C@H](CCCCN)NC(=O)[C@H](Cc4ccccc4)NC(=O)[C@H](CO)NC(=O)[C@H](Cc4c[nH]cn4)NC(=O)[C@H](CCCCN)NC3=O)C(=O)N[C@@H](CCCNC(=N)N)C(=O)N[C@@H](CCCCN)C(=O)N[C@@H]([C@@H](C)O)C(=O)N2)NC(=O)[C@H](CCCNC(=N)N)NC(=O)[C@H](CO)NC(=O)[C@H](CCCCN)NC(=O)[C@@H]2CCCN2C(=O)[C@H]([C@@H](C)CC)NC(=O)[C@H]([C@@H](C)O)NC(=O)[C@H](CC(=O)O)NC1=O` [[Lys16, Phe21]ShK-amide], for which the IC50 was found to be 1.47 nM in assay [1], 0.246 nM at hKv1.3 and 2.04 nM in assay [2].

Regarding `CC[C@H](C)[C@@H]1NC(=O)[C@@H](NC(=O)[C@H](CO)NC(=O)[C@@H](N)CCCNC(=N)N)CSSC[C@@H](C(N)=O)NC(=O)[C@H]([C@@H](C)O)NC(=O)CNC(=O)[C@@H]2CSSC[C@@H]3NC(=O)[C@H](CCCCN)NC(=O)[C@H](Cc4ccccc4)NC(=O)[C@H](C)NC(=O)[C@H]([C@@H](C)O)NC(=O)[C@H](CSSC[C@H](NC(=O)[C@H](Cc4ccccc4)NC(=O)[C@H](CO)NC(=O)[C@H](CC(C)C)NC(=O)[C@H](CCCNC(=N)N)NC(=O)[C@H](Cc4ccc(O)cc4)NC(=O)[C@H](CCCCN)NC(=O)[C@H](CO)NC(=O)[C@H](CO)NC(=O)[C@H](Cc4c[nH]cn4)NC(=O)[C@H](CCCCN)NC3=O)C(=O)N[C@@H](CCCNC(=N)N)C(=O)N[C@@H](CCCCN)C(=O)N[C@@H]([C@@H](C)O)C(=O)N2)NC(=O)[C@H](CCCNC(=N)N)NC(=O)[C@H](CO)NC(=O)[C@H](CCCCN)NC(=O)[C@@H]2CCCN2C(=O)[C@H]([C@@H](C)CC)NC(=O)[C@H]([C@@H](C)O)NC(=O)[C@H](CC(=O)O)NC1=O` [[Lys16, Ser21]ShK-amide], the 50% inhibitory concentration (IC50) was found to be 1.45 nM in assay [1], 0.068 nM against hKv1.3 and 1.71 nM in assay [2].

With `CC[C@H](C)[C@@H]1NC(=O)[C@@H](NC(=O)[C@H](CO)NC(=O)[C@@H](N)CCCNC(=N)N)CSSC[C@@H](C(N)=O)NC(=O)[C@H]([C@@H](C)O)NC(=O)CNC(=O)[C@@H]2CSSC[C@@H]3NC(=O)[C@H](CCCCN)NC(=O)[C@H](Cc4ccccc4)NC(=O)[C@H](C)NC(=O)[C@H]([C@@H](C)O)NC(=O)[C@H](CSSC[C@H](NC(=O)[C@H](Cc4ccccc4)NC(=O)[C@H](CO)NC(=O)[C@H](CC(C)C)NC(=O)[C@H](CCCNC(=N)N)NC(=O)[C@H](Cc4ccc(O)cc4)NC(=O)[C@H](CCCCN)NC(=O)[C@H]([C@@H](C)O)NC(=O)[C@H](CO)NC(=O)[C@H](Cc4c[nH]cn4)NC(=O)[C@H](CCCCN)NC3=O)C(=O)N[C@@H](CCCNC(=N)N)C(=O)N[C@@H](CCCCN)C(=O)N[C@@H]([C@@H](C)O)C(=O)N2)NC(=O)[C@H](CCCNC(=N)N)NC(=O)[C@H](CO)NC(=O)[C@H](CCCCN)NC(=O)[C@@H]2CCCN2C(=O)[C@H]([C@@H](C)CC)NC(=O)[C@H]([C@@H](C)O)NC(=O)[C@H](CC(=O)O)NC1=O` [[Lys16, Thr21]ShK-amide], the IC50 amounted to 1.55 nM in assay [1], 0.058 nM against hKv1.3 and 2.98 nM in assay [2].

Turning to `CC[C@H](C)[C@@H]1NC(=O)[C@@H](NC(=O)[C@H](CO)NC(=O)[C@@H](N)CCCNC(=N)N)CSSC[C@@H](C(N)=O)NC(=O)[C@H]([C@@H](C)O)NC(=O)CNC(=O)[C@@H]2CSSC[C@@H]3NC(=O)[C@H](CCCCN)NC(=O)[C@H](Cc4ccccc4)NC(=O)[C@H](C)NC(=O)[C@H]([C@@H](C)O)NC(=O)[C@H](CSSC[C@H](NC(=O)[C@H](Cc4ccccc4)NC(=O)[C@H](CO)NC(=O)[C@H](CC(C)C)NC(=O)[C@H](CCCNC(=N)N)NC(=O)[C@H](Cc4ccc(O)cc4)NC(=O)[C@H](CCCCN)NC(=O)[C@H](Cc4c[nH]c5ccccc45)NC(=O)[C@H](CO)NC(=O)[C@H](Cc4c[nH]cn4)NC(=O)[C@H](CCCCN)NC3=O)C(=O)N[C@@H](CCCNC(=N)N)C(=O)N[C@@H](CCCCN)C(=O)N[C@@H]([C@@H](C)O)C(=O)N2)NC(=O)[C@H](CCCNC(=N)N)NC(=O)[C@H](CO)NC(=O)[C@H](CCCCN)NC(=O)[C@@H]2CCCN2C(=O)[C@H]([C@@H](C)CC)NC(=O)[C@H]([C@@H](C)O)NC(=O)[C@H](CC(=O)O)NC1=O` [[Lys16, Trp21]ShK-amide], the 50% inhibitory concentration (IC50) was 3.86 nM in assay [1], 0.782 nM at hKv1.3 and 3.19 nM in assay [2].
